# From ChEMBL document CHEMBL1143686, “Alkylation potency and protein specificity of aromatic urea derivatives and bioisosteres as potential irreversible antagonists of the colchicine-binding site” (2007)
# The source made the active and inactive calls. The calls are words filed in the database; no cut-off is given here.
# How the values were obtained:
# HT-29 = experiment: Growth inhibition of human HT29 cells after 48 hrs; assay type: functional; conditions: HT-29, 48 h
# M21 [1] = experiment: Growth inhibition of human M21 cells after 48 hrs; assay type: functional; conditions: M21, 48 h
# M21 [2] = experiment: Alkylation of beta tubulin in human M21 cells at 25 uM; assay type: functional, cell-based
# MCF7 = experiment: Growth inhibition of human MCF7 cells after 48 hrs; assay type: functional; conditions: MCF7, 48 h
# M21 [3] = experiment: Cell cycle arrest by accumulation at G2/M phase in human M21 cells after 24 hrs by flow cytometry; assay type: functional, cell-based
# M21 [4] = experiment: Alkylation of beta tubulin in human M21 cells at 25 uM after 16 to 24 hrs; assay type: functional, cell-based
SMILES,GI50 (HT-29) [µM],GI50 (MCF7) [µM],GI50 (M21 [1]) [µM],Activity (M21 [2]),Activity (M21 [3]),Activity (M21 [4])
Cc1ccc(NC2=NCCO2)c(C)c1,15,23,26,inactive,–,–
CC[C@]1(O)C[C@@H]2CN(CCc3c([nH]c4ccccc34)[C@@](C(=O)OC)(c3cc4c(cc3OC)N(C)[C@H]3[C@@](O)(C(=O)OC)[C@H](OC(C)=O)[C@]5(CC)C=CCN6CC[C@]43[C@@H]65)C2)C1 [VINBLASTINE],0.002,0.002,0.01,–,–,–
Cc1cccc(C)c1/N=C1/NCCO1,15,23,27,–,–,–
c1cc2c(c(NC3=NCCO3)c1)CCC2,16,26,30,–,–,–
COc1cc2c(c(OC)c1OC)-c1ccc(OC)c(=O)cc1[C@@H](NC(C)=O)CC2 [COLCHICINE],0.004,0.009,0.015,–,–,–
Cc1ccccc1NC1=NCCO1,13,21,18,–,–,–
c1cc2c(cc1NC1=NCCO1)CCC2,4.9,9.1,8.1,–,Active,Active
Ic1ccc(NC2=NCCO2)cc1,1.3,2.9,2,–,–,Active
O=C(CCl)NC(=O)Nc1cccc2c1CCC2,3.2,2.2,4.9,inactive,–,–
Cc1cccc(NC2=NCCO2)c1,33,52,61,–,–,–
CC(C)(C)c1ccc(NC2=NCCO2)cc1,1.5,3,2.4,–,–,Active
CC(=O)O[C@H]1C(=O)[C@@]2(C)[C@H]([C@H](OC(=O)c3ccccc3)[C@]3(O)C[C@H](OC(=O)[C@H](O)[C@@H](NC(=O)c4ccccc4)c4ccccc4)C(C)=C1C3(C)C)[C@]1(OC(C)=O)CO[C@@H]1C[C@@H]2O [PACLITAXEL],0.015,0.054,0.037,–,–,–
O=C(CCl)NC(=O)NC1c2ccccc2-c2ccccc21,8.6,4.8,3.4,inactive,–,–
Cc1ccc(NC2=NCCO2)cc1,13,27,22,–,–,–
Cc1ccc(C)c(NC2=NCCO2)c1,44,72,73,–,–,–
Cc1ccc(NC2=NCCO2)cc1C,2.7,5.7,5.1,–,–,Active
Cc1cccc(NC2=NCCO2)c1C,9,15,17,inactive,–,–
c1ccc2c(c1)-c1ccccc1C2NC1=NCCO1,15,11,17,–,–,–
Cc1cc(C)cc(NC2=NCCO2)c1,7,19,12,–,–,–

# The next lines start with results.
GI50 (HT-29) [µM],GI50 (MCF7) [µM],SMILES,GI50 (M21 [1]) [µM],Activity (M21 [2]),Activity (M21 [3]),Activity (M21 [4])
78,–,Cc1ccc(NC(=O)NCCCl)c(C)c1,–,–,–,–
95,–,O=C(NCCCl)Nc1cccc2c1CCC2,–,–,–,–
6.9,6.8,O=C(CCl)NC(=O)Nc1ccc(I)cc1,4.2,–,–,–
6.7,5.8,Cc1ccc(C)c(NC(=O)NC(=O)CCl)c1,3.8,inactive,–,–
13,5,O=C(CCl)NC(=O)Nc1ccc2c(c1)Cc1ccccc1-2,4.8,inactive,–,–
6.9,5.5,Cc1ccc(NC(=O)NC(=O)CCl)cc1C,4.3,inactive,–,–
11,8.6,Cc1ccc(NC(=O)NC(=O)CCl)c(C)c1,7.4,inactive,–,–
39,–,Cc1cccc(NC(=O)NCCCl)c1,81,–,–,–
9.8,10.6,Cc1ccccc1NC(=O)NC(=O)CCl,6.9,inactive,–,–
4.2,12,Cc1ccc(NC(=O)NCCCl)cc1C,8.4,–,–,–
8.5,31,Cc1cc(C)cc(NC(=O)NCCCl)c1,16,–,–,–
10,7.5,Cc1ccc(NC(=O)NC(=O)CCl)cc1,4.9,inactive,–,–
7,4,O=C(CCl)NC(=O)Nc1ccc2c(c1)CCC2,1.7,inactive,–,–
4.7,17,O=C(NCCCl)Nc1ccc2c(c1)CCC2,8.9,–,Active,–
16,44,Cc1ccc(NC(=O)NCCCl)cc1,33,–,–,–
1.9,6,O=C(NCCCl)Nc1ccc(I)cc1,3.9,–,–,–
6.6,7.4,Cc1cccc(C)c1NC(=O)NC(=O)CCl,6.3,inactive,–,–
67,–,Cc1ccc(C)c(NC(=O)NCCCl)c1,–,–,–,–
6,6.5,Cc1cccc(NC(=O)NC(=O)CCl)c1C,4.7,inactive,–,–
2.3,14.2,O=C(NCCCl)Nc1ccc2c(c1)Cc1ccccc1-2,5.1,–,Active,–
3.3,4.8,CC(C)(C)c1ccc(NC(=O)NC(=O)CCl)cc1,1.1,–,–,–
9,6.1,Cc1cccc(NC(=O)NC(=O)CCl)c1,4,inactive,–,–
2.3,6.2,CC(C)(C)c1ccc(NC(=O)NCCCl)cc1,4.3,–,–,–
16,21,O=C(NCCCl)NC1c2ccccc2-c2ccccc21,38,–,–,–
6.1,4.3,Cc1cc(C)cc(NC(=O)NC(=O)CCl)c1,3.7,inactive,–,–
